According to patent publication US20090233307A1, “METHODS FOR DETECTION OF SINGLE STRAND BREAKS IN DNA” (The University of North Carolina at Chapel Hill, priority 2008, published 2009):

Columns and labels:
[1] = system: AP sites in genomic DNA exposed to heat/acid conditions; assay: OTX optimization for protection of AP sites from alkaline cleavage (alkaline gel electrophoresis); design: species or system chicken; conditions: OTX 37° C. 1 hour, denaturation 100 mM NaOH (pH 12.8)
Description: AP sites were produced in stock DT40 DNA through exposure to heat/acid conditions. DT40 DNA was incubated in sodium citrate buffer (10 mM sodium citrate, 10 mM NaH2PO4, 10 mM NaCl pH 5) for 5 minutes at 70° C., followed by rapid chilling on ice to stop the reaction (Nakamura et al., Cancer Res., 58, 222-225 (1998)). Depurinated DNA was collected using Microcon® YM-3 centrifugal filter devices (Amicon Bioseparations). This DNA was then washed several times with HEPES buffer (50 mM, pH 7) supplemented with 1 mM 2,2,6,6-tetramethylpiperidine-N-oxyl (TEMPO). DNA was resuspended in HEPES buffer containing 1 mM TEMPO.
An alkaline gel electrophoresis protocol (AGE) (Drouin et al., in: Technologies for Detection of DNA Damage and Mutations (G. P. Pfeifer, ed.). Plenum Press, New York, N.Y., pp. 37-43 (1996)) with modifications was used to assess SSBs and ALSs in DNA from exposed cells. The 0.7% agarose gel was prepared in gel buffer (50 mM NaCl, 1 mM EDTA, pH 7) and deionized water. After forming, the gel was soaked in mild alkaline running buffer (30 mM NaOH, 1 mM EDTA, pH 12.4) for at least 30 minutes. Equal amounts of DNA (3-5 μg) were incubated for 1 hour at 37° C. in the presence or absence of 30 mM OTX (Aldrich) in 50 mM HEPES buffer. […] Following OTX exposure, the samples were denatured through treatment with an alkaline buffer (100 mM NaOH, 30 mM OTX, 50 mM HEPES, pH 12.8) for 20 minutes at 37° C. Samples then received loading buffer (10 mM NaOH, 95% formamide (Fluka), 0.05% bromophenol blue, 0.05% xylene cyanol) and were loaded onto the agarose gel. The gel was subjected to electrophoresis at a constant voltage (30 V) for 16 hours at 4° C. At the completion of electrophoresis, the gel was placed in neutralization buffer (400 mM Tris, pH 7.5) for 20 minutes at room temperature. […]
With knowledge of optimal AP site cleavage (pH≧12.2) and DNA denaturation (pH≦12.56) conditions, the utility of stabilizing AP sites prior to complete unwinding at high pH was assessed for subsequent gel electrophoresis. […]

[2] = system: Chinese hamster ovary (CHO) AA8 cells; assay: OTX-coupled comet assay; type: cell-based; conditions: 1 mM MMS 10 minutes
Description: Chinese hamster ovary (CHO) AA8 cells were seeded at a concentration 0.5×10^6 cell/mL into several 10 cm culture dishes with 10 mL of MEM-α media (Gibco) supplemented with 10% fetal bovine serum (heat inactivated; Sigma), 100 μg/mL penicillin, and 100 μg/mL streptomycin. These were allowed to grow for 48 hours at 37° C. and 5% CO2. Culture dishes were about 80-85% confluent at harvest.
Before cells were harvested for use in the comet assay, the lysis solution (2.5 M NaCl, 100 mM Na2-EDTA, 10 mM Trizma, pH 10) was completed with the addition of 10% (v/v) DMSO and 1% (v/v) Triton X-100, mixed thoroughly, and refrigerated at 4° C. A 0.5% solution of low melting point agarose (LMPA) was also prepared and allowed to equilibrate to 37° C. in a water bath. Partially frosted microscope slides, pre-coated several days before with 50 μL of 1% normal melting point agarose (NMPA), were labeled and set aside.
Prior to cell harvest, the media was removed and each dish was washed with 10 mL of 1×PBS. An additional 2 mL of 1×PBS was added to each dish and the cells were harvested using a rubber policeman. Harvested cells were combined into 15 mL centrifuged tubes and gently mixed by pipetting to obtain a homogenous cell sample. The cell count was obtained using a hemacytometer. The volume of cell sample needed to obtain 11,000 cells per slide to be prepared was added to a new 15 mL centrifuge tube and centrifuged for 5 minutes at 1,100 RPM. The supernatant was removed and the cell pellet resuspended in 1×PBS at a volume equal to 10 μL per slide to be prepared (e.g. 5 slides×10 μL per slide=50 μL 1×PBS total).
For each slide to be prepared, 10 μL of the cell sample was added to a 1.5 mL centrifuge tube. The cell layer of the slide was created by first gently mixing 100 μL of the 0.5% LMPA with the 10 μL of cell sample in the tube. This mixture was then added to a pre-coated slide and a coverslip placed onto the slide to create a thin layer of the cell mixture. Slides with cell layers were then refrigerated at 4° C. for 15 minutes to solidify the gel. After this incubation, the initial coverslips were removed and an additional 150 μL of 0.5% LMPA was added to each slide. A fresh coverslip was placed onto each slide to create a thin top layer and the slides were refrigerated for another 15 minutes. After removing the coverslip, completed slides that were receiving MMS treatment were placed in a slide chamber containing warmed MEM-α media with 1 mM MMS for 10 minutes. The slide chamber was kept warm by placing it within an incubator held at 37° C. After the 10 minutes, the slides were washed with 1×PBS for 5 minutes at room temperature and then transferred to slide chambers containing the chilled lysis solution. […]

[3] = system: DT40 cells; assay: Cell death in DT40 cells; type: cell-based; conditions: unpublished data
[4] = system: DT40 cells; assay: SSB repair through NAD(P)H depletion, DT40 cells; type: cell-based, chicken; conditions: DT40 cells exposed to MMS
Description: (§1) SSB repair capacity was determined by a real-time colorimetric assay that measures intracellular NAD(P)H levels (Tano et al., DNA Repair, 6, 869-875 (2007)). PARP-1 activation during SSB repair leads to NAD^+ consumption, which can be indirectly monitored through NAD(P)H depletion (Nakamura et al., Nucleic Acids Res., 31, e104 (2003)). Briefly, 5×10^3 cells/well were seeded into a 96-well plate. After a 30 minute incubation period, the cells were treated with 1 mM MMS quickly followed by the addition of a dye containing XTT (Sigma) and 1-methoxy PMS (Sigma). For up to 4 hours, the NAD(P)H-dependent conversion of the XTT tetrazolium salt to a yellow colored formazan dye was measured spectrophotometrically. Decreases in intracellular NAD(P)H levels were determined through comparison of values to those of the PBS control. Established methods for detecting SSBs have not been adequately characterized for pH effects on DNA structure and chemistry and also lack a high specificity for SSBs, primarily because of artifactual SSB formation. […] The accumulation of SSBs leads to PARP-1 over-activation and the consumption of NAD+, which is indirectly monitored in living cells through the measurement of intracellular NAD(P)H depletion using tetrazolium salts, such as XTT, during chemical exposure (Tano et al., DNA Repair, 6, 869-875 (2007)). […]

[5] = system: Pol β null cells; assay: SSB repair through NAD(P)H depletion, Pol β null cells; type: cell-based, chicken; conditions: Pol β null cells exposed to MMS
Description: as §1

SMILES	optimum concentration to protect AP sites from alkaline cleavage [1]	OTX concentration with complete protection of AP sites from alkaline cleavage ([1]; electrophoresis pH 12.4)	OTX concentration with little to no protection of AP sites from alkaline cleavage ([1]; electrophoresis pH 12.4)	tail moments over the various incubation times with OTX protection ([2]; 300 mM OTX 0-4 hours at 37° C.)	tail moment with OTX protection vs 1 hour incubation without OTX ([2]; 300 mM OTX, 1 hour incubation)	tail moment, one hour incubation with OTX vs zero hour incubation control without OTX ([2]; 300 mM OTX, one hour)	concentration that induces cell death [3]	protection from MMS-induced NAD(P)H depletion [4]	protection from MMS-induced NAD(P)H depletion [5]
NOC1CCCCO1 (stereo not shown) [OTX, O-(tetrahydro-2H-pyran-2-yl)hydroxylamine]	30 mM	≥ 10 mM	< 1 mM	no significant increase in tail moments	significant decrease in tail moment	significant decrease in tail moment	2000 µM		
NC(=O)c1cccc(N)c1 [3-aminobenzamide]								mostly protected	mostly protected
CON [Methoxyamine]							20000 to 30000 µM		
